Experimental data as given in publication PMC12467535 (Biomedicines, 2025).
Read-outs that look alike come from different tables or passages of the source. One block for each substance: values may come before it. No end group written: not given here.

Columns and labels:
[1] = test system: caspase-8; test: Caspase-8 activity assay in RPE lysates of CS/HFD apoB100 mice; assay type: in vivo; conditions: chronic CS/HFD, two IVT injections, p < 0.05
Protocol: (§1) At 8 weeks of age, male and female mice were placed in a smoking chamber for 5 h/day, 5 days/week for 6 months following our published protocol.
After the retina and RPE/choroid were harvested, protein was extracted using RIPA Buffer (Sigma-Aldrich, St Louis, MO, USA) with Proteinase inhibitor and phosphatase inhibitor. Nine eyes per treatment group were used in this assay, and each sample included 75 μg of protein to standardize the amount of tissue with the Luminescent Caspase-Glow 8 assay kit (Promega, Madison, WI, USA) used according to manufacturer’s protocol. […]

[2] = test system: IBA1+ inflammatory cells in the retina; test: IBA1+ cell count in retinal flatmounts of CS/HFD apoB100 mice; assay type: in vivo; conditions: chronic CS/HFD, two IVT injections, p < 0.000001
Protocol: as §1
For retinal and RPE flatmount immunofluorescence confocal microscopy, mice were euthanized and eyes enucleated (7 eyes/treatment group) to be processed for staining for IBA1 (microglia/monocyte marker) and ZO-1 (RPE morphology). The anterior segments were removed, and the retina was carefully separated from the RPE/choroid complex. Tissues were fixed in 2% paraformaldehyde in Tris-buffered saline (TBS) at 4 °C overnight. Retina flatmounts were processed with TBS/1% bovine serum albumin (BSA) and 5% donkey serum overnight at 4 °C. The flatmounts were then incubated with goat polyclonal anti-AIF-1/IBA1 antibody (1:50; Novus biologicals, Centennial, CO, USA) for 48 h at 4 °C, washed, and incubated with donkey anti-goat Cy3 secondary antibody (Abcam, Cambridge, MA, USA) overnight at 4 °C [27]. […] For retinal quadrants, microglia/monocytes/macrophages, defined by IBA1-immunolabeled cell bodies, were counted in five 20 × power fields per flatmount. For RPE/choroid quadrants, each image was used to measure the RPE cell aspect ratio and the average size per cell using ImageJ after setting a threshold as indicated by the software At least 15 cells were measured/experimental group, with n = 5 animals/group, using our previously published protocol.

[3] = test system: retinal pigment epithelium (RPE); test: Chronic CS/HFD apoB100 mouse model of dry AMD, RPE morphology on ZO-1 flatmounts; assay type: in vivo; conditions: apoB100 mice, 6 months CS/HFD, two IVT injections 6 weeks apart; p < 0.05
Source text: For the mouse study, an equal number of male and female apolipoproteinB100 (apoB100) mice on a C57/S129 background were used. These animals carry a mutation in the editing gene apobec1, resulting in the predominant production of apoB100 in these mice, contrasting to the majority of mice that predominantly produce apoB48 [24]. For all mice strains, the rd8 mutation was bred out. Mice were fed a standard diet until they were put in the smoking chamber and then were fed a high-fat diet (HFD) consisting of 60% fat, 20% protein, and 20% carbohydrate (Research Diets, Inc., New Brunswick, NJ, USA). The study was approved by the Johns Hopkins IACUC. […]
For retinal and RPE flatmount immunofluorescence confocal microscopy, mice were euthanized and eyes enucleated (7 eyes/treatment group) to be processed for staining for IBA1 (microglia/monocyte marker) and ZO-1 (RPE morphology). […] For retinal quadrants, microglia/monocytes/macrophages, defined by IBA1-immunolabeled cell bodies, were counted in five 20 × power fields per flatmount. For RPE/choroid quadrants, each image was used to measure the RPE cell aspect ratio and the average size per cell using ImageJ after setting a threshold as indicated by the software At least 15 cells were measured/experimental group, with n = 5 animals/group, using our previously published protocol.

[4] = test system: retinal pigment epithelium (RPE); test: Delayed sodium iodate challenge rabbit model, RPE lesion area by fluorescein angiography; assay type: in vivo, Dutch-belted rabbit; conditions: for protection against sodium iodate-induced lesion (lesion size): no statistically significant difference between the two doses
Protocol: A 20 mg/mL stock solution of sodium iodate (NaIO3, Sigma Aldrich, St. Louis, MO, USA, Cat#54007) was prepared in sterile 0.9% injectable saline (Cytiva, Marlborough, MA, USA, Z1376), aliquoted into single-use vials, and stored at −20 °C until use. On the day of dosing, aliquots were thawed at room temperature and used immediately. For NaIO3 administration, rabbits were weighed and anesthetized with 2–5% isoflurane (Dechra, Norwich, United Kingdom, 17033-094-25) delivered in medical-grade oxygen at a flow rate of 1.0 to 1.5 L/min via chamber until sedated, then moved to facemask for the injection procedure. The left ear was shaved and disinfected with […] prior to intravenous injection. An indwelling catheter was inserted into the marginal ear vein and flushed with sterile 0.9% injectable saline to ensure patency. Sodium iodate was administered intravenously at a dose of 18 mg/kg body weight, followed by a 0.3 mL saline flush. […] Ten animals were used in each treatment group and 6 animals served as the naïve control group.
Fluorescein angiography was performed following topical anesthesia of the rabbit eyes with proparacaine hydrochloride 0.5% (Akorn, 24208-730-06) and pharmacologic dilation with tropicamide (Akorn, 17478-102-12) and phenylephrine (Akorn, 17478-206-12). The rabbits were anesthetized with isoflurane and the ear was prepared as stated above. A 50 µL bolus of 10% sodium fluorescein (Akorn, 59399-001-04) was injected into the marginal ear vein and allowed to circulate for at least 2 min prior to imaging. Fundus images were captured (Spectralis, Heidelberg Engineering) to document and quantify the extent of visible choroidal and RPE degeneration in both eyes. The area of RPE depigmentation was quantified using ImageJ software (version 1.51j8). In certain cases where the damage extended well into the periphery it was not possible to image the entire edge of the affected area, and these cases were labeled “too large to grade” and were excluded from the final analysis.
With a favorable pharmacokinetic profile, we next evaluated the durability of ONL1204 protection. […] The dose of the systemic sodium iodate had been selected based on a titration that identified a level of systemic sodium iodate that led to localized and quantifiable damage to the rabbit RPE. This damage was assessed one day after sodium iodate administration by quantifying the depigmented lesion area, defined as regions of visible choroid (“window defect”) on fluorescein angiography (Figure 3A,B).

[5] = minipig, in vivo
Protocol: (§2) Prior to the IVT injection, a combination of 100 mg Telazol, 50 mg ketamine, and 50 mg xylazine per mL of solution was administered via intramuscular injection at 0.03–0.06 mL/kg. For two animals, dexmedetomidine (0.02 or 0.03 mg/kg) was administered as a supplementary anesthetic via intramuscular injection. Proparacaine was then administered to eye, followed by tropicamide. The area surrounding the eye was swabbed with an ophthalmic Betadine solution.
(§3) For both studies, animals were euthanized at the indicated time points. Eyes were enucleated, snap frozen in liquid nitrogen, and stored frozen until dissection for collection of vitreous, retina, and RPE/choroid for bioanalysis. […] For statistical determination, all values that were below the lower limit of quantification (LLOQ) were considered zero. Pharmacokinetic analysis was performed from the composite concentration versus time data generated for ocular tissue samples through Day 84 using Phoenix WinNonlin (version 8.5.2.4) software.

[6] = in vivo; conditions: Dutch-belted, rabbit
Source text: (§4) Prior to injection, each eye was moistened with an ophthalmic Betadine solution, which was then washed out of the eyes with sterile saline. Then, 0.5% proparacaine was applied to the ocular surface prior to the injection.
as §3

[7] = rabbit, in vivo
Source text: as §4, §3

[8] = in vivo; conditions: Göttingen, minipig
Protocol: as §2, §3

[9] = human, in vivo; cited from earlier work
[10] = minipig, in vivo; remark: listed apart in the source
Protocol: as §2, §3

[11] = test system: GA lesion growth; set-up: method as in PMID 37696275, PMID 37865470; conditions: patients with geographic atrophy, after one year of treatment, relative to sham; range given for either agent; cited from earlier work
[12] = 10 ug/eye, Average concentration of ONL1204 in RPE/choroid
[13] = 10 ug/eye, Average concentration of ONL1204 in retina
[14] = 50 ug/eye, Average concentration of ONL1204 in RPE/choroid
[15] = 50 ug/eye, Average concentration of ONL1204 in retina
[16] = 100 ug/eye, Average concentration of ONL1204 in RPE/choroid
[17] = 100 ug/eye, Average concentration of ONL1204 in retina
[18] = 200 ug/eye, Average concentration of ONL1204 in RPE/choroid
[19] = 200 ug/eye, Average concentration of ONL1204 in retina
[20] = 300 ug/eye, Average concentration of ONL1204 in RPE/choroid
[21] = 300 ug/eye, Average concentration of ONL1204 in retina

Substance: HHIYLGAVNYIY-NH2 (C-terminus assumed) [ONL1204]
Caspase-8 activity in whole RPE lysates vs vehicle [1]: significantly reduced | IBA1+ inflammatory cell infiltration in the retina vs vehicle [2]: decreased | posterior RPE cell area vs vehicle [3]: significantly lower than the control | protection against sodium iodate-induced lesion (lesion size) ([4]; single IVT 25 µg on Day 0, sodium iodate 18 mg/kg i.v. on Day 4): comparable levels of protection | protection against sodium iodate-induced lesion (lesion size) ([4]; single IVT 100 µg on Day 0, sodium iodate 18 mg/kg i.v. on Day 4): comparable levels of protection | lesion area vs vehicle-treated controls and 25 µg group ([4]; single IVT 100 µg on Day 0, sodium iodate on Day 14): significantly smaller lesion areas | lesion area vs vehicle-treated controls and 25 µg group ([4]; single IVT 100 µg on Day 0, sodium iodate on Day 28): significantly smaller lesion areas

half-life ([5]; half-life calculated from the vitreous humor data): 112 days | half-life ([5]; vitreous humor half-life): > 100 days | tissue level at time at 24 h [6, 12]: 5.45 ng/g | tissue level at time at 672 h [6, 12]: 10.5 ng/g | tissue level at time at 1344 h [6, 12]: 144 ng/g | tissue level at time at 1992 h [6, 12]: 213 ± 207 ng/g | tissue level at time at 24 h [6, 13]: 11.2 ± 8.4 ng/g | tissue level at time at 672 h [6, 13]: 51 ± 97.9 ng/g | tissue level at time at 1344 h [6, 13]: 14.3 ± 15.1 ng/g | tissue level at time at 24 h [6, 14]: 58 ± 79.8 ng/g | tissue level at time at 672 h [6, 14]: 92.4 ng/g | tissue level at time at 1344 h [6, 14]: 61.8 ng/g | tissue level at time at 1992 h [6, 14]: 209 ± 251 ng/g | tissue level at time at 24 h [6, 15]: 75.6 ± 144 ng/g | tissue level at time at 672 h [6, 15]: 27 ± 36.6 ng/g | tissue level at time at 1344 h [6, 15]: 37.8 ± 48.4 ng/g | tissue level at time at 1992 h [6, 15]: 201 ± 268 ng/g | tissue level at time at 24 h [6, 16]: 174 ± 149 ng/g | tissue level at time at 672 h [6, 16]: 40.6 ng/g | tissue level at time at 1344 h [6, 16]: 36.2 ± 41 ng/g | tissue level at time at 24 h [6, 17]: 183 ± 346 ng/g | tissue level at time at 672 h [6, 17]: 42.3 ± 72.1 ng/g | tissue level at time at 1344 h [6, 17]: 22.7 ± 27.9 ng/g | tissue level at time at 1992 h [6, 17]: 86.1 ± 103 ng/g | half-life ([7]; 10 ug, calculated vitreous half-life): 147 days | half-life ([7]; 50 ug, calculated vitreous half-life): 116 days | half-life ([7]; 100 ug, calculated vitreous half-life): 124 days | half-life ([7]; vitreous humor half-life): > 100 days | tissue level at time at 144 h [8, 18]: 189 ± 160 ng/g | tissue level at time at 672 h [8, 18]: 66.5 ± 87.8 ng/g | tissue level at time at 2112 h [8, 18]: 38.2 ± 21.7 ng/g | tissue level at time at 144 h [8, 19]: 17.8 ± 27.3 ng/g | tissue level at time at 672 h [8, 19]: 2.05 ng/g | tissue level at time at 144 h [8, 20]: 101 ± 91.4 ng/g | tissue level at time at 672 h [8, 20]: 82.4 ± 34.5 ng/g | tissue level at time at 2112 h [8, 20]: 29.8 ng/g | tissue level at time at 144 h [8, 21]: 7.2 ± 6.37 ng/g | tissue level at time at 672 h [8, 21]: 23.8 ± 16.4 ng/g | half-life calculated from the vitreous humor data [10]: 117.18 days | stability in plasma: rapidly broken down by peptidases
Substance: HHIYLGAVNYIY-NH2 [ONL1204]
safety in Phase 1 clinical trial [9]: safe

Substance: avacincaptad pegol
reduction of the rate of GA lesion growth [11]: 14–26%

Substance: pegcetacoplan
reduction of the rate of GA lesion growth [11]: 14–26%
